“And” between values parts separate entries of the source, which are not always exact repeats. Equal values may be shown once.
How the values were obtained:
BRM = molecular target: T1, BRM (Homo sapiens, UniProt P51531); test: ATPase catalytic activity of BRM, ADP-Glo in vitro biochemical assay; settings: ATPase catalytic activity, 30 nM BRM, 400 μM ATP, read-out: BRM IP50 (μM)*
T1 construct: made in house; host or cells: High Five insect cells

BRG-1 = molecular target: T2, BRG-1 (Homo sapiens, UniProt P51532); test: ATPase catalytic activity of BRG-1, ADP-Glo in vitro biochemical assay; settings: ATPase catalytic activity, 30 nM BRG-1, 400 μM ATP, read-out: BRG1 IP50 (μM)*
T2 construct: made in house; host or cells: High Five insect cells
T2 sequence (P51532 whole entry): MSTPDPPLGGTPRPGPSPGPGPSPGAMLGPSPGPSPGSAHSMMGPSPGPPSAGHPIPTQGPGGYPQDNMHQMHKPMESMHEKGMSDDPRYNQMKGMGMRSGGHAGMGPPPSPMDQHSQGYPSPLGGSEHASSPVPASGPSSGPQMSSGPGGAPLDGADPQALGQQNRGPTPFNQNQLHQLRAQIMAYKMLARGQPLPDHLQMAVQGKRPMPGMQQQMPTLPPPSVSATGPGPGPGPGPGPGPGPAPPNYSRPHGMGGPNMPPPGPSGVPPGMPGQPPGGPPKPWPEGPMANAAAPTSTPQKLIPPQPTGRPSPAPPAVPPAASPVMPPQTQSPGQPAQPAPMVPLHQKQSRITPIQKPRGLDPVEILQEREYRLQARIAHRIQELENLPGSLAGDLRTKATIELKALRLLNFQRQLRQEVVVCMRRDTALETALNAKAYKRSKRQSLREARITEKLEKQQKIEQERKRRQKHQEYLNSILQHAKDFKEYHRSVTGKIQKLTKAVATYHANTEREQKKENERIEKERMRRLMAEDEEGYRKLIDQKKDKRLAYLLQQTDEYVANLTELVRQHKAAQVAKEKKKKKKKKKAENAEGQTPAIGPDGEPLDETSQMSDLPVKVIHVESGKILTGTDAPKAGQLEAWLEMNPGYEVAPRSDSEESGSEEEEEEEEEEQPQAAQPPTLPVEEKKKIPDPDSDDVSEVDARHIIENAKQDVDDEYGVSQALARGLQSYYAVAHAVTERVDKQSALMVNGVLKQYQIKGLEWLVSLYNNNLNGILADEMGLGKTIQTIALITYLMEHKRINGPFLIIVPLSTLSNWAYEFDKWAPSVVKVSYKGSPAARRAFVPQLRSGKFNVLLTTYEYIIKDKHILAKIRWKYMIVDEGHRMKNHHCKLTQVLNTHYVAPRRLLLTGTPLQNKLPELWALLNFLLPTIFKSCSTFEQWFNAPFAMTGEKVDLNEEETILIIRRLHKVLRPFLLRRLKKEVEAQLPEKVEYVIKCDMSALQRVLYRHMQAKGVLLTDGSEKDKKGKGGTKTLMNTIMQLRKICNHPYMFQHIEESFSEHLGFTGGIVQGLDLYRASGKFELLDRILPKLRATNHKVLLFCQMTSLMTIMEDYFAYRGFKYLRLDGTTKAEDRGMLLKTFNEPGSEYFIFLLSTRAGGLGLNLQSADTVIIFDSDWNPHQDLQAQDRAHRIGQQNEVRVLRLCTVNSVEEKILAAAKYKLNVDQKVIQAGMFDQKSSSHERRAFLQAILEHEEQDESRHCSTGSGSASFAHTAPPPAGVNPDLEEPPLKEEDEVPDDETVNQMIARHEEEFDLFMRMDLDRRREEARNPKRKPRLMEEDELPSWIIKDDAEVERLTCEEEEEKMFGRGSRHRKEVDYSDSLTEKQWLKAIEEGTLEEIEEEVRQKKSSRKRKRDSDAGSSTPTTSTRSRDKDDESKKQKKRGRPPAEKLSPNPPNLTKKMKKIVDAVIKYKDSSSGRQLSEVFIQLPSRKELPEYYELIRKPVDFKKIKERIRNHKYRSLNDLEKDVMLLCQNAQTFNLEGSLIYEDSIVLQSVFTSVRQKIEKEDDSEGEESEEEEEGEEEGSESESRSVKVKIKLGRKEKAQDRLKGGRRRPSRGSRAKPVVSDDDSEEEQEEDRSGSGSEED

T1 sequence (P51531 whole entry): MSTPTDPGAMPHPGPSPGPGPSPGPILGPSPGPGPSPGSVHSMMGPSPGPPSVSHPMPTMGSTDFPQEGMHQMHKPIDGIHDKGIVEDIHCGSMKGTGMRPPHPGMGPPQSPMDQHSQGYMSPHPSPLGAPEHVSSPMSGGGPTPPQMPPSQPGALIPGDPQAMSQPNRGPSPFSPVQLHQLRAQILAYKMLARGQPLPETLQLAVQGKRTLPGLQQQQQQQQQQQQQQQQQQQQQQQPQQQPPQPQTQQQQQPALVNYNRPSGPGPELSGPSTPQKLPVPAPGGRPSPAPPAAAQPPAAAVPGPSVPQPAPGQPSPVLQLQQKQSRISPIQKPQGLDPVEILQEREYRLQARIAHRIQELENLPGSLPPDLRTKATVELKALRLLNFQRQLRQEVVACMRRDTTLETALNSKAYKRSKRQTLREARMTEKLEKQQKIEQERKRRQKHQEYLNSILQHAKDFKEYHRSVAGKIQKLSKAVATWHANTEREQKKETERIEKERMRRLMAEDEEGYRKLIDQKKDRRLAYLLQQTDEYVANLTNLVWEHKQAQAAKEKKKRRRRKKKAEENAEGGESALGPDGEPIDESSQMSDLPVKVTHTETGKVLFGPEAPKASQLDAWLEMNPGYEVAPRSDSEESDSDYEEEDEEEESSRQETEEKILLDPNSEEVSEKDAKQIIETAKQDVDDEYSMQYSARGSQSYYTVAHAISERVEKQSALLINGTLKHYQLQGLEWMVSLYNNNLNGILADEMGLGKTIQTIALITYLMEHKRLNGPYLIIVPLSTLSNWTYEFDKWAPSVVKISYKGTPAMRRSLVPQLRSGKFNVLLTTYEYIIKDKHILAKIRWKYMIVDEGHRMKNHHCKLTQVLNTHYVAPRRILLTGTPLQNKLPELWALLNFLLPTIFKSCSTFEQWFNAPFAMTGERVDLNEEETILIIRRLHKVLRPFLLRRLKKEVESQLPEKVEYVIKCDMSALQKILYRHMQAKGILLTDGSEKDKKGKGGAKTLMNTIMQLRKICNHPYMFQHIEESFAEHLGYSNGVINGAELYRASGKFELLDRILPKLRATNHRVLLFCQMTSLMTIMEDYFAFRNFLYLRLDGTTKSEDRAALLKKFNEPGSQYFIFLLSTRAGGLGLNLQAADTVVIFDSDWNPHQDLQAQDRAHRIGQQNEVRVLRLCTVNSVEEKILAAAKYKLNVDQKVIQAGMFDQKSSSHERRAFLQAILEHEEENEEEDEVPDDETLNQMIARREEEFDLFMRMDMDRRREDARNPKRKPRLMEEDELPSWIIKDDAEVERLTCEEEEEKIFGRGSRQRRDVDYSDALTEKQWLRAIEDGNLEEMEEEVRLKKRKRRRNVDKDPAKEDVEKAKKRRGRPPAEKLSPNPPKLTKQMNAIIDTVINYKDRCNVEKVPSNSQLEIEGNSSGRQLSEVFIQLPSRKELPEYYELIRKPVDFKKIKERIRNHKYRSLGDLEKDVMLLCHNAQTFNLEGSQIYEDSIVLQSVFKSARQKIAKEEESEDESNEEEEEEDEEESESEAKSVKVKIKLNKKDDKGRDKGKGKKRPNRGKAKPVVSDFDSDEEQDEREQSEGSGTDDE

Row | SMILES | IC50 (BRM) | IC50 (BRG-1) [µM]
1 | CS(=O)(=O)n1ccc(C(=O)N[C@@H](CCO)C(=O)Nc2nc(-c3cccc(-c4ccncc4)c3)cs2)c1 [Compound 71, (S)—N-(4-hydroxy-1-oxo-1-((4-(3-(pyridin-4-yl)phenyl)thiazol-2-yl)amino)butan-2-yl)-1-(methylsulfonyl)-1H-pyrrole-3-carboxamide] | < 0.01 µM and > 0.01 µM | < 0.01
2 | CC(C)[C@H](NC(=O)c1ccn(S(C)(=O)=O)c1)C(=O)Nc1nc(-c2cccc(-c3ccncc3)c2)cs1 [Compound 73, (S)—N-(3-methyl-1-oxo-1-((4-(3-(pyridin-4-yl)phenyl)thiazol-2-yl)amino)butan-2-yl)-1-(methylsulfonyl)-1H-pyrrole-3-carboxamide] | > 0.01 µM | > 0.01
3 | CC(C)(C)[C@H](NC(=O)c1ccn(S(C)(=O)=O)c1)C(=O)Nc1nc(-c2cccc(-c3ccncc3)c2)cs1 [Compound 74, (S)—N-(3,3-dimethyl-1-oxo-1-((4-(3-(pyridin-4-yl)phenyl)thiazol-2-yl)amino)butan-2-yl)-1-(methylsulfonyl)-1H-pyrrole-3-carboxamide] | > 1 µM | > 1
4 | CC(C)C[C@H](NC(=O)c1ccn(S(C)(=O)=O)c1)C(=O)Nc1nc(-c2cccc(-c3ccncc3)c2)cs1 [Compound 75, (S)—N-(4-methyl-1-oxo-1-((4-(3-(pyridin-4-yl)phenyl)thiazol-2-yl)amino)pentan-2-yl)-1-(methylsulfonyl)-1H-pyrrole-3-carboxamide] | > 0.01 µM | > 0.01
5 | Cc1cc(-c2cccc(-c3csc(NC(=O)CNC(=O)c4ccn(S(C)(=O)=O)c4)n3)c2)cc(C)n1 [Compound 81, N-(2-((4-(3-(2,6-dimethylpyridin-4-yl)phenyl)thiazol-2-yl)amino)-2-oxoethyl)-1-(methylsulfonyl)-1H-pyrrole-3-carboxamide] | < 0.01 µM | < 0.01
6 | CS(=O)(=O)n1ccc(C(=O)NCC(=O)Nc2nc(-c3cccc(-c4ccnc(C(F)(F)F)c4)c3)cs2)c1 [Compound 82, 1-(methylsulfonyl)-N-(2-oxo-2-((4-(3-(2-(trifluoromethyl)pyridin-4-yl)phenyl)thiazol-2-yl)amino)ethyl)-1H-pyrrole-3-carboxamide] | < 0.01 µM | < 0.01
7 | Cn1cc(-c2cccc(-c3csc(NC(=O)CNC(=O)c4ccn(C(C)(C)C)c4)n3)c2)cn1 [Compound 83, 1-(tert-butyl)-N-(2-((4-(3-(1-methyl-1H-pyrazol-4-yl)phenyl)thiazol-2-yl)amino)-2-oxoethyl)-1H-pyrrole-3-carboxamide] | > 0.01 µM | > 0.01
8 | CC(C)(C)n1ccc(C(=O)NCC(=O)Nc2nc(-c3cccc(-c4ccncn4)c3)cs2)c1 [Compound 84, 1-(tert-butyl)-N-(2-oxo-2-((4-(3-(pyrimidin-4-yl)phenyl)thiazol-2-yl)amino)ethyl)-1H-pyrrole-3-carboxamide] | < 0.01 µM | > 0.01
9 | C[C@H]1CN(c2cccc(-c3csc(NC(=O)CNC(=O)c4ccn(S(C)(=O)=O)c4)n3)c2)C[C@H](C)O1 [Compound 86, N-(2-((4-(3-((2S, 6S)-2,6-dimethylmorpholino)phenyl)thiazol-2-yl)amino)-2-oxoethyl)-1-(methylsulfonyl)-1H-pyrrole-3-carboxamide] | < 0.01 µM | < 0.01
10 | C[C@@H]1CN(c2cccc(-c3csc(NC(=O)CNC(=O)c4ccn(S(C)(=O)=O)c4)n3)c2)CCO1 [Compound 88, (R)—N-(2-((4-(3-(2-methylmorpholino)phenyl)thiazol-2-yl)amino)-2-oxoethyl)-1-(methylsulfonyl)-1H-pyrrole-3-carboxamide] | < 0.01 µM | < 0.01

Second part, the molecule after the results:

Row | IC50 (BRM) | IC50 (BRG-1) [µM] | SMILES
11 | < 0.01 µM | < 0.01 | CS(=O)(=O)n1ccc(C(=O)N[C@@H](CO)C(=O)Nc2nc(-c3cccc(-c4ccncc4)c3)cs2)c1 [Compound 69, (S)—N-(3-hydroxy-1-oxo-1-((4-(3-(pyridin-4-yl)phenyl)thiazol-2-yl)amino)propan-2-yl)-1-(methylsulfonyl)-1H-pyrrole-3-carboxamide]
12 | < 0.01 µM | < 0.01 | COCC[C@H](NC(=O)c1ccn(S(C)(=O)=O)c1)C(=O)Nc1nc(-c2cccc(-c3ccncc3)c2)cs1 [Compound 72, (S)—N-(4-methoxy-1-oxo-1-((4-(3-(pyridin-4-yl)phenyl)thiazol-2-yl)amino)butan-2-yl)-1-(methylsulfonyl)-1H-pyrrole-3-carboxamide]
13 | > 0.01 µM | > 0.01 | CC(C)(C)C[C@H](NC(=O)c1ccn(S(C)(=O)=O)c1)C(=O)Nc1nc(-c2cccc(-c3ccncc3)c2)cs1 [Compound 76, (S)—N-(4,4-dimethyl-1-oxo-1-((4-(3-(pyridin-4-yl)phenyl)thiazol-2-yl)amino)pentan-2-yl)-1-(methylsulfonyl)-1H-pyrrole-3-carboxamide]
14 | > 0.01 µM | > 0.01 | CN(C)CCC(NC(=O)c1ccn(S(C)(=O)=O)c1)C(=O)Nc1nc(-c2cccc(-c3ccncc3)c2)cs1 (stereo not shown) [Compound 77, N-(4-(dimethylamino)-1-oxo-1-((4-(3-(pyridin-4-yl)phenyl)thiazol-2-yl)amino)butan-2-yl)-1-(methylsulfonyl)-1H-pyrrole-3-carboxamide]
15 | > 0.01 µM | > 0.01 | CN(C)CC[C@H](NC(=O)c1ccn(S(C)(=O)=O)c1)C(=O)Nc1nc(-c2cccc(-c3ccncc3)c2)cs1 [Compound 78, (S)—N-(4-(dimethylamino)-1-oxo-1-((4-(3-(pyridin-4-yl)phenyl)thiazol-2-yl)amino)butan-2-yl)-1-(methylsulfonyl)-1H-pyrrole-3-carboxamide]
16 | > 0.1 µM | > 0.1 | CN(C)CC[C@@H](NC(=O)c1ccn(S(C)(=O)=O)c1)C(=O)Nc1nc(-c2cccc(-c3ccncc3)c2)cs1 [Compound 79, (R)—N-(4-(dimethylamino)-1-oxo-1-((4-(3-(pyridin-4-yl)phenyl)thiazol-2-yl)amino)butan-2-yl)-1-(methylsulfonyl)-1H-pyrrole-3-carboxamide]
17 | < 0.01 µM | < 0.01 | C[C@@H]1CN(c2cccc(-c3csc(NC(=O)CNC(=O)c4ccn(S(C)(=O)=O)c4)n3)c2)C[C@@H](C)O1 [Compound 85, N-(2-((4-(3-((2R, 6R)-2,6-dimethylmorpholino)phenyl)thiazol-2-yl)amino)-2-oxoethyl)-1-(methylsulfonyl)-1H-pyrrole-3-carboxamide]
18 | < 0.01 µM | < 0.01 | C[C@H]1CN(c2cccc(-c3csc(NC(=O)CNC(=O)c4ccn(S(C)(=O)=O)c4)n3)c2)CCO1 [Compound 87, (S)—N-(2-((4-(3-(2-methylmorpholino)phenyl)thiazol-2-yl)amino)-2-oxoethyl)-1-(methylsulfonyl)-1H-pyrrole-3-carboxamide]
19 | > 0.01 µM | > 0.01 | CC1(C)CN(c2cccc(-c3csc(NC(=O)CNC(=O)c4ccn(S(C)(=O)=O)c4)n3)c2)CCO1 [Compound 89, N-(2-((4-(3-(2,2-dimethylmorpholino)phenyl)thiazol-2-yl)amino)-2-oxoethyl)-1-(methylsulfonyl)-1H-pyrrole-3-carboxamide]
20 | < 0.01 µM | < 0.01 | C[C@@H]1CN(c2cccc(-c3csc(NC(=O)CNC(=O)c4ccn(C(C)(C)C)c4)n3)c2)C[C@H](C)O1 [Compound 90, 1-(tert-butyl)-N-(2-((4-(3-(cis-2,6-dimethylmorpholino)phenyl)thiazol-2-yl)amino)-2-oxoethyl)-1H-pyrrole-3-carboxamide]

From patent publication US20230079819A1, “COMPOUNDS AND USES THEREOF” (Foghorn Therapeutics Inc., priority 2019, published 2023)
